Source: patent US10233179B2, “Thiazoles and uses thereof” (AbbVie Inc., priority 2013, dated 2019)

Tests used:
[1] = tested on: RSV (Group A, Long Strain); test: Antiviral cytopathic effect (CPE) protection assay, MTT readout; assay type: cell-based; settings: human respiratory syncytial virus, 96 h; HEp-2 cells, 0.2 MOI RSV, 4 days incubation, protection from CPE by MTT
Method: HEp-2 cells and RSV (Group A, Long Strain) were obtained from the American Type Culture Collection (Manassas, Va.).
A cytopathic effect (CPE) protection assay was performed to determine the ability of a compound to protect the cells from viral infection and thus the CPE induced by viral infection. 96-Well plates were first seeded with 3×10^3 HEp-2 cells per well in Dulbecco's modified Eagle's medium (DMEM) containing 10% fetal bovine serum (FBS). One day after the cells were seeded, they were preincubated with serial dilutions of compounds prepared in 100 μL assay medium (DMEM mixed with F12 medium at a 1:1 ratio, supplemented with 2% FBS and 1 mM sodium pyruvate) for 1 hour at 37° C. 100 μL of assay medium containing 0.2 multiplicity of infection (MOI) of RSV was then added to each well of cells. In addition to wells containing infected cells incubated with compounds, each plate also contained replicates of two kinds of controls: (1) Virus control contained cells infected with 0.2 MOI of RSV in assay medium, (2) Uninfected cell control contained cells incubated with assay medium only. After 4 days of incubation at 37° C., the viability of cells was assessed using MTT (Thiazolyl blue tetrazolium bromide, Sigma). A stock solution of MTT, at a concentration of 4 mg/mL in phosphate-buffered saline, was added to all wells at 25 μL per well. Plates were further incubated for 4 hours, and each well was then treated with 50 μL of a solution containing 20% sodium dodecyl sulfate (SDS) and 0.02 N HCl. After an overnight incubation, the plates were measured on a BioTek® microtiter plate reader at wavelengths of 570 nm and 650 nm. The MTT detection is based on the fact that viable (uninfected) cells can reduce the tetrazolium salts into colored formazan products, which can then be quantitated by spectrometry. Based on the spectrometric absorbance of each sample, the percent of protection from CPE, which is an indicator of protection from viral infection, can be calculated for each compound and the 50% effective concentrations (EC50) can be calculated using a nonlinear regression curve fitting equation provided by the GraphPad Prism® 4 software.
Compounds were tested to determine both their antiviral and toxicity to determine their therapeutic window. Determination of the EC50 and TD50 of these active compounds were repeated one additional time to confirm the window.

HEp-2 cells = test: Cytotoxicity assay (MTT) in parallel with the antiviral assay; assay type: cell-based
Method: HEp-2 cells and RSV (Group A, Long Strain) were obtained from the American Type Culture Collection (Manassas, Va.). Cytotoxicity of the compounds was determined in experiments done in parallel with the antiviral assays. To do this, 100 μL of assay medium was added to the wells of HEp-2 cells pretreated with 100 μL serially diluted compounds as described above. After 4 days of incubation, the viability of the cells was determined by the MTT assay in the same way as detailed in the “Antiviral Assay” method. Results were expressed as 50% toxicity dose (TD50) values. Compounds were tested to determine both their antiviral and toxicity to determine their therapeutic window. Determination of the EC50 and TD50 of these active compounds were repeated one additional time to confirm the window.

[2] = uninfected HEp-2 cells, 4 days incubation, MTT viability

c1cc(CN(Cc2cccn2-c2nncs2)CC2C[C@H]3CC[C@@H]2C3)n(-c2nncs2)c1 (stereo partly drawn) [Example 11, 1-[(1R,4S)-bicyclo[2.2.1]hept-2-yl]-N,N-bis{[1-(1,3,4-thiadiazol-2-yl)-1H-pyrrol-2-yl]methyl}methanamine]
EC50 [1]: 560 nM
MTT TD50 (HEp-2 cells; [2]): 26 µM

Cc1c(C(C)N(Cc2ccc(Cl)cc2-c2ccnc(C(F)(F)F)n2)Cc2cccn2-c2nccs2)cnn1-c1cccc(F)c1 (centres unmarked) [Example 5, N-{4-chloro-2-[2-(trifluoromethyl)pyrimidin-4-yl]benzyl}-1-[1-(3-fluorophenyl)-5-methyl-1H-pyrazol-4-yl]-N-{[1-(1,3-thiazol-2-yl)-1H-pyrrol-2-yl]methyl}ethanamine]
EC50 [1]: > 110 nM
MTT TD50 (HEp-2 cells; [2]): 0.11 µM

CC(c1ccc(Cl)c(Cl)c1)N(Cc1cccn1-c1nccs1)Cc1cccn1-c1nccs1 (centres unmarked) [Example 46, 1-(3,4-dichlorophenyl)-N,N-bis{[1-(1,3-thiazol-2-yl)-1H-pyrrol-2-yl]methyl}ethanamine]
EC50 [1]: 550 nM
MTT TD50 (HEp-2 cells; [2]): >32 µM

N#Cc1ccc(CN(Cc2cccn2-c2nncs2)Cc2cccn2-c2nncs2)cc1 [Example 56, 4-[(bis{[1-(1,3,4-thiadiazol-2-yl)-1H-pyrrol-2-yl]methyl}amino)methyl]benzonitrile]
EC50 [1]: 46000 nM
MTT TD50 (HEp-2 cells; [2]): >100 µM

COc1ccc(CN(Cc2cccn2-c2nncs2)Cc2cccn2-c2nncs2)c(OC)c1 [Example 8, 1-(2,4-dimethoxyphenyl)-N,N-bis{[1-(1,3,4-thiadiazol-2-yl)-1H-pyrrol-2-yl]methyl}methanamine]
EC50 [1]: 240 nM
MTT TD50 (HEp-2 cells; [2]): 22 µM

c1ccc(C2(CCN(Cc3cccn3-c3nncs3)Cc3cccn3-c3nncs3)CC2)nc1 [Example 21, 2-[1-(pyridin-2-yl)cyclopropyl]-N,N-bis{[1-(1,3,4-thiadiazol-2-yl)-1H-pyrrol-2-yl]methyl}ethanamine]
EC50 [1]: 62 nM
MTT TD50 (HEp-2 cells; [2]): >32 µM

CC(Cc1cccs1)N(Cc1cccn1-c1nncs1)Cc1cccn1-c1nncs1 (centres unmarked) [Example 25, N,N-bis{[1-(1,3,4-thiadiazol-2-yl)-1H-pyrrol-2-yl]methyl}-1-(thiophen-2-yl)propan-2-amine]
EC50 [1]: 7500 nM
MTT TD50 (HEp-2 cells; human, 4 days): 55 µM

Fc1ccccc1CN(Cc1cccn1-c1nncs1)Cc1cccn1-c1nncs1 [Example 15, 1-(2-fluorophenyl)-N,N-bis{[1-(1,3,4-thiadiazol-2-yl)-1H-pyrrol-2-yl]methyl}methanamine]
EC50 [1]: 120 nM
MTT TD50 (HEp-2 cells; [2]): 67 µM

c1cncc(C2(CCN(Cc3cccn3-c3nccs3)Cc3cccn3-c3nccs3)CC2)c1 [Example 60, 2-[1-(pyridin-3-yl)cyclopropyl]-N,N-bis{[1-(1,3-thiazol-2-yl)-1H-pyrrol-2-yl]methyl}ethanamine]
EC50 [1]: 850 nM
MTT TD50 (HEp-2 cells; [2]): >100 µM

Clc1cccc(Cl)c1CN(Cc1cccn1-c1nccs1)Cc1cccn1-c1nccs1 [Example 36, 1-(2,6-dichlorophenyl)-N,N-bis{[1-(1,3-thiazol-2-yl)-1H-pyrrol-2-yl]methyl}methanamine]
EC50 [1]: 33 nM
MTT TD50 (HEp-2 cells; [2]): 24 µM

FC(F)(F)c1cccc(CN(Cc2cccn2-c2nccs2)Cc2cccn2-c2nccs2)c1 [Example 44, 1-[1-(1,3-thiazol-2-yl)-1H-pyrrol-2-yl]-N-{[1-(1,3-thiazol-2-yl)-1H-pyrrol-2-yl]methyl}-N-[3-(trifluoromethyl)benzyl]methanamine]
EC50 [1]: 120 nM
MTT TD50 (HEp-2 cells; [2]): 38 µM

FC(F)(F)c1cccc(CN(Cc2cccn2-c2nncs2)Cc2cccn2-c2nncs2)c1 [Example 16, 1-[1-(1,3,4-thiadiazol-2-yl)-1H-pyrrol-2-yl]-N-{[1-(1,3,4-thiadiazol-2-yl)-1H-pyrrol-2-yl]methyl}-N-[3-(trifluoromethyl)benzyl]methanamine]
EC50 [1]: 2100 nM
MTT TD50 (HEp-2 cells; [2]): 30 µM

c1coc(CN(Cc2cccn2-c2nccs2)Cc2cccn2-c2nccs2)c1 [Example 63, 1-(furan-2-yl)-N,N-bis{[1-(1,3-thiazol-2-yl)-1H-pyrrol-2-yl]methyl}methanamine]
EC50 [1]: 260 nM
MTT TD50 (HEp-2 cells; [2]): 20 µM
